Experimental data as given in ChEMBL document CHEMBL4190382, “Targeting lysine specific demethylase 4A (KDM4A) tandem TUDOR domain - A fragment based approach” (Bioorg Med Chem Lett, 2018).
Changes are numbered by the printed parent chain. The source made the active and inactive calls. The rule behind the calls is not given here.

How the values were obtained:
[1] = test system: T1, Lysine-specific demethylase 4A (Homo sapiens), O75164 [F932A]; experiment: Binding affinity to thrombin cleavable N-terminal 6His tagged and 13C-IVLM labeled human KDM4A tandem TUDOR domain (897 to 1011 residues) F932A mutant expressed in Escherichia coli BL21(DE3)-T1R by ITC method
T1 sequence (whole entry): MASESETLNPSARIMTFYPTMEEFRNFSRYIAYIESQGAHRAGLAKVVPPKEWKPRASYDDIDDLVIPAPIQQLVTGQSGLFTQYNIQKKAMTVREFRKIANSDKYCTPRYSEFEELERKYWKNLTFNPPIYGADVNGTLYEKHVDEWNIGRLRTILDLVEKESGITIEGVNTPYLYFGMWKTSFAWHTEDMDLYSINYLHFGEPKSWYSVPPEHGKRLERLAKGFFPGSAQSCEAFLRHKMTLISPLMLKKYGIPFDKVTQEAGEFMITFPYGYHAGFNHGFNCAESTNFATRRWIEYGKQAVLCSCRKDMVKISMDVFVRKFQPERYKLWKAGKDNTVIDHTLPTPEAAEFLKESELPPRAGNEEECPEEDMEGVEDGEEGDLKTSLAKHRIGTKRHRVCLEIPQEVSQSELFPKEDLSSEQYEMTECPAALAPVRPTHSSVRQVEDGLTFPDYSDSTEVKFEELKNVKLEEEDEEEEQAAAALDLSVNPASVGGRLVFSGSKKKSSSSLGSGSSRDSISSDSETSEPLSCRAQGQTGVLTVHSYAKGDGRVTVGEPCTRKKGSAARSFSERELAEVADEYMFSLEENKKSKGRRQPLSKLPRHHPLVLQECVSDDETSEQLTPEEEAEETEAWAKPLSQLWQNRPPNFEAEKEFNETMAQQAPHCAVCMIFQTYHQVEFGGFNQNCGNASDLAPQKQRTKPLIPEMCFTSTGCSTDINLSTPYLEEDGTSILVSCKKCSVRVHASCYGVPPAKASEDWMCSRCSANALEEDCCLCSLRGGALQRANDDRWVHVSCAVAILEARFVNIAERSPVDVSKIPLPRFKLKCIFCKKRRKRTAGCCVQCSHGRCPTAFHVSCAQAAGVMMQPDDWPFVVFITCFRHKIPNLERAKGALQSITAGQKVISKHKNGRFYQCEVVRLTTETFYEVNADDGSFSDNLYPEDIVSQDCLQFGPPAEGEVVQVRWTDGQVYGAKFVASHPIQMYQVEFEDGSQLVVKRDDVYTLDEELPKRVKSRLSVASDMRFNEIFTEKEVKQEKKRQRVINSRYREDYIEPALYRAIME

[2] = test system: T2, Lysine-specific demethylase 4A (Homo sapiens), O75164 [Y973A]; experiment: Binding affinity to thrombin cleavable N-terminal 6His tagged and 13C-IVLM labeled human KDM4A tandem TUDOR domain (897 to 1011 residues) Y973A mutant expressed in Escherichia coli BL21(DE3)-T1R by ITC method
T2 sequence (whole entry): T1 sequence (whole entry) with A932F, Y973A

[3] = molecular target: T3, E3 ubiquitin-protein ligase UHRF1 (Homo sapiens, UniProt Q96T88); experiment: Binding affinity to 6His-tagged and human UHRF1 tandem TUDOR domain (126 to 285 residues) expressed in Escherichia coli BL21(DE3)-T1R by ITC method
T3 sequence (Q96T88 whole entry): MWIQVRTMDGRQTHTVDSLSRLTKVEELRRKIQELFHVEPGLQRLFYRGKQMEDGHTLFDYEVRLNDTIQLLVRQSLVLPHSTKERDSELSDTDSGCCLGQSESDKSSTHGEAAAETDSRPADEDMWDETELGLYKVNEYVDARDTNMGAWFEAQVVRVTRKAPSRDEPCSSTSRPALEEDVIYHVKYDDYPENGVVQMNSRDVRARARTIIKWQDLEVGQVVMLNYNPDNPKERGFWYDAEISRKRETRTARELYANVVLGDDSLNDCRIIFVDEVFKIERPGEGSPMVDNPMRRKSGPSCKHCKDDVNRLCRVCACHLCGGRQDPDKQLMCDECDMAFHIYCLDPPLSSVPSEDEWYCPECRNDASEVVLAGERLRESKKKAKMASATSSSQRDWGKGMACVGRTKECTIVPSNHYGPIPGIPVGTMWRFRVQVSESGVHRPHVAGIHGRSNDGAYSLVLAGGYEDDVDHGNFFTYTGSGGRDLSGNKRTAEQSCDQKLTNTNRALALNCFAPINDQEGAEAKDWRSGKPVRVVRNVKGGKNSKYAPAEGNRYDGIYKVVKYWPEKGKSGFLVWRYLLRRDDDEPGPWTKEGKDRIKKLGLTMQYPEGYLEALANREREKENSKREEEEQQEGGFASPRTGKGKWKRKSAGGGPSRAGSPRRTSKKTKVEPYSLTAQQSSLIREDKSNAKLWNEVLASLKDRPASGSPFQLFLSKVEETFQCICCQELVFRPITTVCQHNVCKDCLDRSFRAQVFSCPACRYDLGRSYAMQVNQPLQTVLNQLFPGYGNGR

Activity [1]: inactive
Activity [2]: inactive
Kd [3]: Not Active
SMILES: CN(C)C[C@H]1C2CCC(c3ccccc3)(C2)[C@H]1O (stereo partly drawn)
